Experimental data published in patent US20070238694A1, “Purine compounds and methods of use thereof” (Inotek Pharmaceuticals Corporation, priority 2006, published 2007).
Like-named read-outs stand apart in the source and are kept apart here.

Columns and labels:
[1] = Plasma concentration of Compound 54 after intratracheal administration (HPLC); type: in vivo, Sprague-Dawley rats; details: Sprague-Dawley, rat, other: intratracheal (into the trachea via intubation), 2 mg per rat, 0.2 mL of 10 mg/mL solution in saline
Experimental: (§1) A 10 mg/mL solution of Compound 54 in saline was prepared and 0.2 mL of this solution was administered into the trachea of two Sprague-Dawley rats via intubation. Blood samples were taken at 10 minutes, 30 minutes, 60 minutes and 120 minutes, post-intubation. The plasma concentration of Compound 54 was measured at each of these time points using HPLC and the peak area of the amount of Compound X in the plasma was measured at each of these time points using LC/MS.

[2] = Peak area of Compound X in plasma after intratracheal administration of Compound 54 (LC/MS); type: in vivo, Sprague-Dawley rats
Experimental: as §1
The peak area of Compound X correlates with the plasma concentration of this compound.

CNC(=O)[C@H]1O[C@@H](n2cnc3c(NC)nc(C#N)nc32)[C@@H]2OP(=O)(O)O[C@@H]21 [Compound 54]
concentration at 10 min ([1]; Rat 1, 10 min post-intubation, read-out: Plasma Concentration Rat 1): 830 ng/mL | concentration at 30 min ([1]; Rat 1, 30 min post-intubation, read-out: Plasma Concentration Rat 1): 232 ng/mL | concentration at 60 min ([1]; Rat 1, 60 min post-intubation, read-out: Plasma Concentration Rat 1): 69.3 ng/mL | concentration at 120 min ([1]; Rat 1, 120 min post-intubation, read-out: Plasma Concentration Rat 1): 9.7 ng/mL | concentration at 10 min ([1]; mean of two rats, 10 min post-intubation, read-out: Mean Plasma Concentration): 728 ng/mL | concentration at 30 min ([1]; mean of two rats, 30 min post-intubation, read-out: Mean Plasma Concentration): 217 ng/mL | concentration at 60 min ([1]; mean of two rats, 60 min post-intubation, read-out: Mean Plasma Concentration): 47.6 ng/mL | concentration at 120 min ([1]; mean of two rats, 120 min post-intubation, read-out: Mean Plasma Concentration): 9.6 ng/mL | concentration at 10 min ([1]; second rat column (head printed Rat 1), 10 min post-intubation, read-out: Plasma Concentration Rat 1): 627 ng/mL | concentration at 30 min ([1]; second rat column (head printed Rat 1), 30 min post-intubation, read-out: Plasma Concentration Rat 1): 202 ng/mL | concentration at 60 min ([1]; second rat column (head printed Rat 1), 60 min post-intubation, read-out: Plasma Concentration Rat 1): 26 ng/mL | concentration at 120 min ([1]; second rat column (head printed Rat 1), 120 min post-intubation, read-out: Plasma Concentration Rat 1): 9.5 ng/mL

CNC(=O)[C@H]1O[C@@H](n2cnc3c(NC)nc(C#N)nc32)[C@H](O)[C@@H]1O [Compound X]
Mean Peak Area ([2]; 120 min after intratracheal administration of Compound 54, Rat 2 value not available): 0.4 | Peak Area Rat 1 ([2]; Rat 1, 10 min after intratracheal administration of Compound 54): 140 | Peak Area Rat 1 ([2]; Rat 1, 30 min after intratracheal administration of Compound 54): 9.6 | Peak Area Rat 1 ([2]; Rat 1, 60 min after intratracheal administration of Compound 54): 4.4 | Peak Area Rat 1 ([2]; Rat 1, 120 min after intratracheal administration of Compound 54): 0.4 | Peak Area Rat 2 ([2]; Rat 2, 10 min after intratracheal administration of Compound 54): 64 | Peak Area Rat 2 ([2]; Rat 2, 30 min after intratracheal administration of Compound 54): 12 | Peak Area Rat 2 ([2]; Rat 2, 60 min after intratracheal administration of Compound 54): 1.8 | Mean Peak Area ([2]; mean of rats, 10 min after intratracheal administration of Compound 54): 102 | Mean Peak Area ([2]; mean of rats, 30 min after intratracheal administration of Compound 54): 10.8 | Mean Peak Area ([2]; mean of rats, 60 min after intratracheal administration of Compound 54): 3.1
